Reference: US6737383B1, “Herbicidal oxadiazolidines” (priority 1999, dated 2004)

How the values were obtained:
surinam grass = assay: Test B pre/postemergence surinam grass; type: in vivo, Brachiaria decumbens
Outline: (§1)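 Herbicidal effect was estimated by eye on a ten-point control scale after plants spent twelve to sixteen days in a greenhouse following soil or foliar treatment. Foliar sprays targeted plants at one to four leaves; all doses were formulated in a non-phytotoxic solvent with surfactant.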

cocklebur = assay: Test B pre/postemergence cocklebur; type: in vivo, Xanthium strumarium
Outline: as §1

corn = assay: Test B pre/postemergence corn; type: in vivo, Zea mays
Outline: as §1

crabgrass = assay: Test B pre/postemergence crabgrass; type: in vivo, Digitaria sanguinalis
Outline: as §1

giant foxtail = assay: Test B pre/postemergence giant foxtail; type: in vivo, Setaria faberii
Outline: as §1

morningglory = assay: Test B pre/postemergence morningglory; type: in vivo, Ipomoea hederacea
Outline: as §1

pigweed = assay: Test B pre/postemergence pigweed; type: in vivo, Amaranthus retroflexus
Outline: as §1

rape = assay: Test B pre/postemergence rape; type: in vivo, Brassica napus
Outline: as §1

sugar beet = assay: Test B pre/postemergence sugar beet; type: in vivo, Beta vulgaris
Outline: as §1

wheat = assay: Test B pre/postemergence wheat; type: in vivo, Triticum aestivum
Outline: as §1

wild oat = assay: Test B pre/postemergence wild oat; type: in vivo, Avena fatua
Outline: as §1

purple nutsedge = assay: Test B pre/postemergence purple nutsedge; type: in vivo, Cyperus rotundus
Outline: as §1

rice = assay: Test B flood test rice; type: in vivo, Oryza sativa
Outline: (§2)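 Each value is a visual injury score relative to controls, with 10 meaning complete control and 0 no effect. Evaluation took place twelve to sixteen days after the 2-leaf-stage plants were treated and kept in the greenhouse.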

smallflower flatsedge = assay: Test B flood test smallflower flatsedge; type: in vivo, Cyperus difformis
Outline: as §2

duck salad = assay: Test B flood test duck salad; type: in vivo, Heteranthera limosa
Outline: as §2

bamyardgrass = assay: Test B flood test barnyardgrass; type: in vivo, Echinochloa crus-galli
Outline: as §2

[1] = Preemergence, Rate 62 g/ha, scale of 0 to 10 where 0 is no effect and 10 is complete control
[2] = Preemergence, Rate 250 g/ha, scale of 0 to 10 where 0 is no effect and 10 is complete control
[3] = Preemergence, Rate 500 g/ha, scale of 0 to 10 where 0 is no effect and 10 is complete control
[4] = Rate 62 g/ha, Postemergence, scale 0 to 10 (0 no effect, 10 complete control)
[5] = Rate 125 g/ha, Postemergence, scale of 0 to 10 where 0 is no effect and 10 is complete control
[6] = Rate 250 g/ha, Postemergence, scale of 0 to 10 where 0 is no effect and 10 is complete control
[7] = Rate 500 g/ha, Postemergence, scale 0 to 10, 0 no effect, 10 complete control
[8] = Rate 62 g/ha, headed Pre-emergence (flood test species), scale 0 to 10 (0 no effect, 10 complete control)
[9] = Rate 125 g/ha, Pre-emergence, flood test species, scale 0 to 10 where 0 is no effect and 10 is complete control
[10] = Rate 250 g/ha, Pre-emergence, flood-test species, scale 0 to 10, 0 is no effect, 10 is complete control
[11] = Rate 500 g/ha, Pre-emergence, flood test species, scale 0 to 10 (0 no effect, 10 complete control)

Cc1ccccc1-n1c(=O)on(C(=O)N(c2ccc(OC(F)(F)F)cc2)C(C)C)c1=O [Compound 300]
4: Crabgrass plant response rating (crabgrass; [2])
3: Wild oats plant response rating (wild oat; [3])
5: Giant foxtail plant response rating (0 to 10 scale) (giant foxtail; Preemergence, Rate 125 g/ha)
2: B. signalgrass plant response rating (surinam grass; [3]) | Crabgrass plant response rating (0 to 10 scale) (crabgrass; Preemergence, Rate 125 g/ha) | Wheat plant response rating (wheat; [3])
7: Crabgrass plant response rating (crabgrass; [3])
10: Giant foxtail plant response rating (giant foxtail; [3])
0: B. signalgrass plant response rating (surinam grass; [1]) | B. signalgrass plant response rating (0 to 10 scale, 0 is no effect, 10 is complete control) (surinam grass; Preemergence, Rate 125 g/ha) | B. signalgrass plant response rating (surinam grass; [2]) | B. signalgrass plant response rating (surinam grass; [4]) | B. signalgrass plant response rating (surinam grass; [5]) | Plant response rating, B. signalgrass (surinam grass; [6]) | B. signalgrass plant response rating (surinam grass; [7]) | Cocklebur plant response rating (cocklebur; [1]) | Cocklebur plant response rating (0 to 10 scale) (cocklebur; Preemergence, Rate 125 g/ha) | Cocklebur plant response rating (cocklebur; [2]) | Cocklebur plant response rating (cocklebur; [4]) | Cocklebur plant response rating (cocklebur; [5]) | Plant response rating, Cocklebur (cocklebur; [6]) | Cocklebur plant response rating (cocklebur; [7]) | Corn plant response rating (corn; [1]) | Corn plant response rating (0 to 10 scale) (corn; Preemergence, Rate 125 g/ha) | Corn plant response rating (corn; [2]) | Corn plant response rating (corn; [3]) | Corn plant response rating (corn; [4]) | Corn plant response rating (corn; [5]) | Plant response rating, Corn (corn; [6]) | Corn plant response rating (corn; [7]) | Crabgrass plant response rating (crabgrass; [1]) | Crabgrass plant response rating (crabgrass; [4]) | Crabgrass plant response rating (crabgrass; [5]) | Plant response rating, Crabgrass (crabgrass; [6]) | Giant foxtail plant response rating (giant foxtail; [1]) | Giant foxtail plant response rating (giant foxtail; [4]) | Giant foxtail plant response rating (giant foxtail; [5]) | Plant response rating, Giant foxtail (giant foxtail; [6]) | Morningglory plant response rating (morningglory; [1]) | Morningglory plant response rating (0 to 10 scale) (morningglory; Preemergence, Rate 125 g/ha) | Morningglory plant response rating (morningglory; [2]) | Morningglory plant response rating (morningglory; [3]) | Morningglory plant response rating (morningglory; [4]) | Morningglory plant response rating (morningglory; [5]) | Plant response rating, Morningglory (morningglory; [6]) | Redroot pigweed plant response rating (pigweed; [1]) | Redroot pigweed plant response rating (0 to 10 scale) (pigweed; Preemergence, Rate 125 g/ha) | Redroot pigweed plant response rating (pigweed; [2]) | Redroot pigweed plant response rating (pigweed; [3]) | Redroot pigweed plant response rating (pigweed; [4]) | Redroot pigweed plant response rating (pigweed; [5]) | Plant response rating, Redroot pigweed (pigweed; [6]) | Rape plant response rating (rape; [1]) | Rape plant response rating (0 to 10 scale) (rape; Preemergence, Rate 125 g/ha) | Rape plant response rating (rape; [2]) | Rape plant response rating (rape; [3]) | Rape plant response rating (rape; [4]) | Rape plant response rating (rape; [5]) | Plant response rating, Rape (rape; [6]) | Sugarbeets plant response rating (sugar beet; [1]) | Sugarbeets plant response rating (0 to 10 scale) (sugar beet; Preemergence, Rate 125 g/ha) | Sugarbeets plant response rating (sugar beet; [2]) | Sugarbeets plant response rating (sugar beet; [3]) | Sugarbeets plant response rating (sugar beet; [4]) | Sugarbeets plant response rating (sugar beet; [5]) | Plant response rating, Sugarbeets (sugar beet; [6]) | Wheat plant response rating (wheat; [1]) | Wheat plant response rating (0 to 10 scale) (wheat; Preemergence, Rate 125 g/ha) | Wheat plant response rating (wheat; [2]) | Wheat plant response rating (wheat; [4]) | Wheat plant response rating (wheat; [5]) | Plant response rating, Wheat (wheat; [6]) | Wild oats plant response rating (wild oat; [1]) | Wild oats plant response rating (0 to 10 scale) (wild oat; Preemergence, Rate 125 g/ha) | Wild oats plant response rating (wild oat; [2]) | Wild oats plant response rating (wild oat; [4]) | Wild oats plant response rating (wild oat; [5]) | Plant response rating, Wild oats (wild oat; [6]) | Nutsedge plant response rating (purple nutsedge; [1]) | Nutsedge plant response rating (0 to 10 scale) (purple nutsedge; Preemergence, Rate 125 g/ha) | Nutsedge plant response rating (purple nutsedge; [2]) | Nutsedge plant response rating (purple nutsedge; [3]) | Nutsedge plant response rating (purple nutsedge; [4]) | Nutsedge plant response rating (purple nutsedge; [5]) | Plant response rating, Nutsedge (purple nutsedge; [6]) | Rice plant response rating (rice; [8]) | Rice plant response rating (rice; [9]) | Rice plant response rating (rice; [10]) | Rice plant response rating (rice; [11]) | S. Flatsedge plant response rating (smallflower flatsedge; [8]) | S. Flatsedge plant response rating (smallflower flatsedge; [9]) | S. Flatsedge plant response rating (smallflower flatsedge; [10]) | S. Flatsedge plant response rating (smallflower flatsedge; [11]) | Ducksalad plant response rating (duck salad; [8]) | Ducksalad plant response rating (duck salad; [9]) | Ducksalad plant response rating (duck salad; [10]) | Ducksalad plant response rating (duck salad; [11]) | Barnyardgrass plant response rating (bamyardgrass; [8]) | Barnyardgrass plant response rating (bamyardgrass; [9]) | Barnyardgrass plant response rating (bamyardgrass; [10]) | Barnyardgrass plant response rating (bamyardgrass; [11])
9: Giant foxtail plant response rating (giant foxtail; [2])
